From ChEMBL document CHEMBL4354794, “Potential Anticancer Agents Characterized from Selected Tropical Plants” (J Nat Prod, 2019)
Values after ≈ are worked out from the molar mass of the structure shown.

Key:
HT-29 [1] = assay: Antiproliferative activity against human HT-29 cells assessed as reduction in cell viability; type: functional, cell-based
HT-29 [2] = assay: Antiproliferative activity against human HT-29 cells assessed as reduction in cell viability after 3 days by SRB assay; type: functional, cell-based; conditions: HT-29, 72 h
A549 [3] = assay: Antiproliferative activity against human A549 cells assessed as reduction in cell viability after 48 hrs by MTT assay; type: functional, cell-based; conditions: A549, 48 h
BGC-823 = assay: Antiproliferative activity against human BGC823 cells assessed as reduction in cell viability after 48 hrs by MTT assay; type: functional, cell-based; conditions: BGC-823, 48 h
[4] = Antiproliferative activity against human KKU100 cells assessed as reduction in cell viability after 72 hrs by SRB assay; type: functional, cell-based; conditions: KKU100, 72 h
NCI-H1650 = assay: Antiproliferative activity against human NCI-H1650 cells assessed as reduction in cell viability after 72 hrs by CellTiter-Glo assay; type: functional, cell-based; conditions: NCI-H1650, 72 h
A549 [5] = assay: Antiproliferative activity against human A549 cells assessed as reduction in cell viability after 72 hrs by MTT assay; type: functional, cell-based; conditions: A549, 72 h
SNB-19 = assay: Antiproliferative activity against human SNB19 cells; type: functional, cell-based
HepG2 = assay: Antiproliferative activity against human HepG2 assessed as reduction in cell viability incubated for 48 hrs by AlamarBlue assay; type: functional, cell-based; conditions: HepG2, 48 h
MCF7 = assay: Antiproliferative activity against human MCF7 assessed as reduction in cell viability incubated for 48 hrs by AlamarBlue assay; type: functional, cell-based; conditions: MCF7, 48 h
HT-3 = assay: Antiproliferative activity against human HT3 cells assessed as reduction in cell viability after 6 days by MTT assay; type: functional, cell-based; conditions: HT-3, 144 h
HL-60 = assay: Antiproliferative activity against human HL60 cells assessed as reduction in cell viability after 3 days by trypan blue dye based hemocytometer counting method; type: functional; conditions: HL-60, 72 h
P388 = assay: Antiproliferative activity against mouse P388 cells assessed as reduction in cell viability; type: functional, cell-based
Trypsin = Trypsin (Homo sapiens, UniProt P07477+P07478+P35030); assay: Inhibition of trypsin (unknown origin) using Z-FR-MCA as substrate by spectrofluorimetric method; type: protein assay
Cruzipain = Cruzipain (Trypanosoma cruzi, UniProt P25779); assay: Inhibition of Trypanosoma cruzi cruzain (unknown origin) using Z-FR-MCA as substrate by spectrofluorimetric method
Papain = biological target: T1, Papain (Carica papaya, UniProt P00784); assay: Inhibition of Papaya papain using Z-FR-MCA as substrate by spectrofluorimetric method
T1 sequence (P00784 whole entry): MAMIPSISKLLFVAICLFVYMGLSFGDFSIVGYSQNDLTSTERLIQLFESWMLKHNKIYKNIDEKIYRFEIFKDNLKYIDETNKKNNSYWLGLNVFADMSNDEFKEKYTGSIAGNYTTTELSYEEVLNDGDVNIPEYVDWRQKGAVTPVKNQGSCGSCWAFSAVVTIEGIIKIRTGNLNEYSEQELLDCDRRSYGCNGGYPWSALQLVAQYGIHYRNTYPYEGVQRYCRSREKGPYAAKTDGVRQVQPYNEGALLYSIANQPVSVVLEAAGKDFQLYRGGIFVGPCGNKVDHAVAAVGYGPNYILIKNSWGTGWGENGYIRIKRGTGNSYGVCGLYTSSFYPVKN

Cruzipain, sequence (P25779 whole entry): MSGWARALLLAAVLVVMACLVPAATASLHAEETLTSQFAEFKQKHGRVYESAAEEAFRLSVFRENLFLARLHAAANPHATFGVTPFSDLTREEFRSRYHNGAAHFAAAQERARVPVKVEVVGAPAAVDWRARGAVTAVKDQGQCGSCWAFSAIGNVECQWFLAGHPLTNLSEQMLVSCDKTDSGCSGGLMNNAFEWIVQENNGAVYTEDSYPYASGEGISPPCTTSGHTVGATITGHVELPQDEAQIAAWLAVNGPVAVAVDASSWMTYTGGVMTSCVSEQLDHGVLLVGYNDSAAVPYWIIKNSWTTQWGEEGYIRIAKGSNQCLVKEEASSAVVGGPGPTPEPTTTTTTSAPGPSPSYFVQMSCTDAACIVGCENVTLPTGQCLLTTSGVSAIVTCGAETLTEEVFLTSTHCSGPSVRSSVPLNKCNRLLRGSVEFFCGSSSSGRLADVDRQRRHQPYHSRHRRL

`C=C1C(=O)O[C@@H]2C[C@@H](C)[C@H](OC)CC(=O)[C@](C)(O)C[C@H](OC(=O)/C(C)=C\C)[C@@H]12` showed an IC50 (HT-29 [1]) of 1000 nM.
`CCCCCCCCCCCCCCCC(=O)OC[C@H]1O[C@@H](O[C@H]2CC[C@@]3(C)C(=CC[C@H]4[C@@H]5CC[C@H]([C@H](C)CC[C@@H](CC)C(C)C)[C@@]5(C)CC[C@@H]43)C2)[C@H](O)[C@@H](O)[C@@H]1O` showed an IC50 (HT-29 [2]) of over 10000 nM.
For `CC(C)=CCC12OC(C)(C)C3CC(C=C4C(=O)c5c(O)cc(O)cc5OC431)C2=O` (stereo not drawn), the IC50 (A549 [3]) was 4100 nM and the IC50 (BGC-823) was 5900 nM.
In the case of `COCOc1cc(O)c2c(c1)OC13C(=CC4CC1C(C)(C)OC3(CC=C(C)C)C4=O)C2=O` (stereo not drawn), the IC50 (A549 [3]) is reported as 3300 nM and the IC50 (BGC-823) is reported as 3200 nM.
With `CC(C)=CCc1c(O)cc(O)c2c1O[C@]13C(=C[C@H]4C[C@@H]1C(C)(C)O[C@@]3(CC=C(C)C)C4=O)C2=O` the IC50 [4] was 3500 nM.
For `CC(C)=CCC/C(C)=C/Cc1c(O)c(CC=C(C)C)c2c(c1O)C(=O)C1=C[C@@H]3C[C@H]4C(C)(C)O[C@@](C/C=C(\C)C(=O)O)(C3=O)[C@@]14O2`, the IC50 (NCI-H1650) was 1400 nM.
`COC[C@H]1O[C@@H](Oc2c3c(c(-c4ccc5c(c4)OCO5)c4cc(OC)c(OC)cc24)C(=O)OC3)[C@H](OC)[C@@H](OC)[C@@H]1OC` showed an IC50 (A549 [5]) of 50 nM.
`C=C(C)[C@@]1(O)O[C@H]2C[C@@]3(C)OC(=CC3=O)/C(C)=C\[C@H]3OC(=O)[C@@]1(C)[C@@H]23` gave an IC50 (HT-29 [1]) of over 10000 nM and an IC50 (SNB-19) of 100000 nM.
For `CO[C@H]1[C@H]2C(=O)c3c(O)c4c(c(CC=C(C)C)c3O[C@@]23[C@@H]2C[C@H]1C(=O)[C@]3(C/C=C(/C)C(=O)O)OC2(C)C)OC(C)(C)C=C4`, the IC50 (HT-29 [2]) was 1900 nM.
`COCOc1cc(O)c2c(c1)OC13C(=CC4CC1C(C)(C)OC3(C[C@H](O)C(C)(C)O)C4=O)C2=O` (stereo partly drawn) showed an IC50 (A549 [3]) of 1700 nM and an IC50 (BGC-823) of 860 nM.
Work on `C/C1=C\CC[C@@]2(C)O[C@H]2[C@H]2OC(=O)[C@@H](CNC(Cc3ccc(N(CCCl)CCCl)cc3)C(=O)O)[C@@H]2CC1` (stereo partly drawn) yielded an IC50 (HepG2) of 260 nM and an IC50 (MCF7) of 1800 nM.
In the case of `C=C(C)C(=O)O[C@H]1C[C@@]2(C)OC(=CC2=O)C(=C)[C@H](O)[C@H]2OC(=O)C(=C)[C@@H]21`, the IC50 (HT-29 [1]) is reported as 280 nM.
Molecule `C=C1C(=O)O[C@@H]2C3O[C@]3(C)CC/C=C(\C)CC[C@@H]12` (stereo partly drawn) has an IC50 (HepG2) of over 10000 nM.
In the case of `COc1cc2c(O[C@@H]3OC[C@H](O)[C@H](O)[C@H]3OC)c3c(c(-c4ccc5c(c4)OCO5)c2cc1OC)C(=O)OC3`, the IC50 (HT-29 [2]) is reported as 19 nM.
`COc1cc2c(OC)c3c(c(-c4ccc5c(c4)OCO5)c2cc1OC)C(=O)OC3` [JUSTICIDIN A] showed an IC50 (HT-3) of 1.8 ng/mL (≈ 4.56 nM).
In the case of `CO[C@@H]1[C@@H]2C[C@H]3C(C)(C)O[C@@](C/C=C(/C)C(=O)O)(C2=O)[C@]32Oc3c(CC=C(C)C)c4c(c(O)c3C(=O)[C@H]12)C=C[C@@](C)(CCC=C(C)C)O4`, the IC50 (HL-60) is reported as 830 nM.
For `CC(C)=CCc1c2c(c(O)c3c1O[C@]14C(=C[C@H]5C[C@@H]1C(C)(C)O[C@@]4(C/C=C(/C)C(=O)O)C5=O)C3=O)C=CC(C)(C)O2`, the IC50 (HT-29 [2]) was 360 nM.
Molecule `COCOc1cc(O)c2c(c1)OC13C(=CC4CC1C(C)(C)OC3(C/C=C(\C)C=O)C4=O)C2=O` (stereo not drawn) has an IC50 (A549 [3]) of 1000 nM and an IC50 (BGC-823) of 5000 nM.
`C=C1C(=O)O[C@@H]2/C=C(/C)C3=CC(=O)[C@@](C)(C[C@H](OC(=O)/C(C)=C\C)[C@@H]12)O3` showed an IC50 (HT-29 [1]) of 1400 nM and an IC50 (SNB-19) of 13800 nM.
`CC(C)=CCc1c(-c2cc(O)c(O)cc2O)oc2c3c(cc(O)c2c1=O)OC(C)(C)C=C3` [ARTONIN E] showed an IC50 (P388) of 140 nM.
`CCCC(=O)Oc1ccc(C2Oc3cc(OC(=O)CCC)cc(O)c3C(=O)C2c2c(OC(=O)CCC)cc(O)c3c(=O)cc(-c4ccc(OC(=O)CCC)c(OC(=O)CCC)c4)oc23)cc1` (racemic) showed an IC50 (Trypsin) of 19800 nM, an IC50 (Cruzipain) of 8100 nM and an IC50 (Papain) of 15700 nM.
`COc1ccc(-c2c3c(c(O)c4cc5c(cc24)OCO5)COC3=O)cc1OC` showed an IC50 (HT-3) of over 10000 ng/mL.
With `COCOc1cc2c(c(O)c1Br)C(=O)C1=CC3CC4C(C)(C)OC(C/C=C(\C)CO)(C3=O)C14O2` (stereo not drawn) the IC50 (A549 [3]) was 560 nM and the IC50 (BGC-823) was 2200 nM.
